# Read-outs that look alike come from different tables or passages of the source.
# Assays:
# [1] = tested on: Staphylococcus aureus ATCC 65389; assay: Bactericidal activity, CFU counting method; type: cell-based; conditions: S. aureus ATCC 65389; 18 h at 37 °C; Control 21.36, Control with DMSO 20.85
# Experimental: (§1) The bacterial cultures: Escherichia coli ATCC 8739 and Staphylococcus aureus ATCC 65389 were grown on Luria–Bertani Agar for 18 h at 37 ^∘ C. The strain suspension was prepared in 0.85% saline, with an optical density equivalent to a 0.5 McFarland standard. Next, the following mixtures were prepared: 180 μ L of sterile enriched broth (BTL), 10 μ L of the bacterial suspension and 10 μ L of the tested compound (range 0.1–50 μ g/mL) solubilized in DMSO. As a negative control, only DMSO was added. As a sterility control, 180 μ L of BTL and 20 μ L saline were used. The microtiter plate was incubated at 37 ^∘ C for 18 h. The colony forming unit (CFU) method was used to evaluate the microbial population. The experiment was repeated three times. Gentamicin was used as the reference antibiotic.
# [2] = tested on: Escherichia coli ATCC 8739; assay: Bactericidal activity, CFU counting method; type: cell-based; conditions: E. coli ATCC 8739; for Number of CFU/mL (× 10^7): 18 h at 37 °C, Control 9.47, Control with DMSO 9.30; for less CFU/mL (reduction of the number of CFU/mL): versus control
# Experimental: as §1
# [3] = tested on: AGS cell lines (human gastric adenocarcinoma); assay: MTT reduction cytotoxicity assay; type: cell-based; conditions: for mean percentage of viable cells ± SD: 24 h
# Experimental: (§2) Cell cultures: The L929 mouse fibroblasts and human gastric adenocarcinoma cell line AGS were used for in vitro cytotoxicity assays. The cells were maintained under standard conditions (37 ^∘ C, 5% CO 2 ) in 25 cm^2 tissue culture flasks in RPMI-1640 medium supplemented with 10% fetal bovine serum (FBS) and antibiotics: 100 U/mL penicillin and 100 μ g/mL streptomycin. The cell suspension containing 10 ^8 cells in 1 mL, was obtained by treatment of confluent monolayers with 0.25% trypsin solution, washed and subcultured. Cell cultures were supplemented with medium to maintain them in log phase growth. The viability of the cells was assessed by exclusion of trypan blue dye.
# (§3) Measurements of cellular metabolic activity and global growth inhibition: L929 cells were seeded into 96-well plates (2 × 10 ^5 cells/well) for 24 h, at 37 ^∘ C, 5% CO2 . Tested compounds 5a–c, 6a–c, 7a–c, 8a–c, 9b,c, 10b,c, 12a and 13a were diluted serially in RPMI-1640 medium in concentrations of 50, 20, 10, 5, 0.5 and 0.1 μ g/mL, added to the cells (100 μ L/well), and incubated under standard conditions for 24 h. The potential harmful effect of lactones on L929 and AGS cells was assessed by the ability of the cells to reduce 3-(4,5-dimethylthiazol-2-yl)-2,5-diphenyltetrazolium bromide (MTT) to formazan. The solution of MTT (5 mg/mL in PBS), was added to each well and the plates were incubated for 4h at 37 ^∘ C. Formazan crystals were dissolved with acidic isopropanol (0.1 M HCl in absolute isopropanol) and the plates were read in a plate reader (Victor 2) at 570 nm. The percentage of MTT reduction was calculated by comparing the absorbance of treated cells to that of untreated control cells. Results are expressed as the mean percentage of viable cells ± standard deviation (SD) of four independent experiments. Statistical significance was accepted at a p-value < 0.05.
# [4] = Observation of purified γ-iodo-δ-lactone isomers (decomposition, translactonization); type: physicochemical; conditions: purified trans,trans and cis,trans γ-iodo-δ-lactones; residue an equimolar mixture of trans and cis hydroxylactones
# Experimental: Iodolactonization of 4a–c acids was carried out with I2/KI and NaHCO3 in a water/diethyl ether mixture. […] The yield of reactions was in the range of 69–85%. The reaction conditions prevented the direct synthesis of these compounds because the reaction was carried out in an alkaline solution, whereas hydroxylactonization requires an acidic environment. […] and predominantly formed in this reaction. The excess of trans-isomer is usually observed in the synthesis of γ -lactones. However, the reaction initially gave δ -iodo- γ -lactones, which, through a translactonization reaction, were transformed into the final products–hydroxylactones 12a and 13a. This was confirmed by observations of purified isomers trans,trans and cis,trans γ -iodo- δ -lactones 9b and 10b, and 9c and 10c. […] The carbocation was stabilized by the electron lone pairs of the oxygen atom present in the water molecule. The preparation of hydroxylactones from iodolactones has been described thus far only for biotransformation experiments. The synthesis described here allows obtaining these compounds without microorganisms.
# [5] = tested on: L929 cell lines (mouse fibroblasts); assay: MTT reduction cytotoxicity assay; type: cell-based; conditions: 24 h
# Experimental: as §2, §3
# [6] = MTT reduction cytotoxicity assay; type: cell-based, human; conditions: human, AGS cells (human gastric adenocarcinoma), 24 h, read-out: mean percentage of viable cells ± SD
# Experimental: as §2, §3
# [7] = MTT reduction cytotoxicity assay; type: cell-based, mouse; conditions: mouse, L929 cells (mouse fibroblasts), read-out: mean percentage of viable cells ± SD
# Experimental: as §2, §3
# [8] = tested on: gastric cancer AGS cells; parameters: method as in PMID 23792648; conditions: reference anticancer drug; cited from earlier work
Structure (SMILES),Number of CFU/mL (× 10^7) [1],Number of CFU/mL (× 10^7) [2],IC50 [3],mean percentage of viable cells ± SD ([3]; 0.1 μg/mL),mean percentage of viable cells ± SD ([3]; 0.5 μg/mL),mean percentage of viable cells ± SD ([3]; 5 μg/mL),mean percentage of viable cells ± SD ([3]; 10 μg/mL),mean percentage of viable cells ± SD ([3]; 20 μg/mL),mean percentage of viable cells ± SD ([3]; 50 μg/mL),stability of purified isomer (in words) [4],mean percentage of viable cells ± SD ([5]; 0.1 μg/mL),mean percentage of viable cells ± SD ([5]; 0.5 μg/mL),mean percentage of viable cells ± SD ([5]; 5 μg/mL),mean percentage of viable cells ± SD ([5]; 10 μg/mL),mean percentage of viable cells ± SD ([5]; 20 μg/mL),mean percentage of viable cells ± SD ([5]; 50 μg/mL),less CFU/mL (reduction of the number of CFU/mL) [2],further results
"CC1CC(=O)OC(c2ccccc2)C1I (mixture of isomers) [10b, Cis,trans-tetrahydro-5-iodo-4-methyl-6-phenylpyran-2-one]",5.92 × 10^7 CFU/mL,7.65 × 10^7 CFU/mL,1800 nM,58 ± 0.07%,43 ± 0.02%,37 ± 0.03%,16 ± 0.09%,14 ± 0.08%,10 ± 0.06%,rapid decomposition with release of iodine,25 ± 0.08%,20 ± 0.03%,15 ± 0.08%,7 ± 0.15%,5 ± 0.06%,1 ± 0.02%,–,–
"CC1CC(=O)OC(c2ccc(F)cc2)C1I (mixture of isomers) [10c, Cis,trans-6-(4-fluorophenyl)-tetrahydro-5-iodo-4-methylpyran-2-one]",6.30 × 10^7 CFU/mL,2.87 × 10^7 CFU/mL,1700 nM,38 ± 0.06%,23 ± 0.15%,20 ± 0.02%,13 ± 0.03%,10 ± 0.07%,8 ± 0.03%,rapid decomposition with release of iodine,22 ± 0.05%,18 ± 0.03%,12 ± 0.07%,6 ± 0.09%,2 ± 0.15%,2 ± 0.05%,70–78%,–
"CC1CC(=O)OC(c2ccccc2)C1I (stereo not drawn) [9b, Trans,trans-tetrahydro-5-iodo-4-methyl-6-phenylpyran-2-one]",21.25 × 10^7 CFU/mL,9.02 × 10^7 CFU/mL,–,–,–,–,–,–,–,rapid decomposition with release of iodine,–,–,–,–,–,–,–,"viability at 24 h, 0.1 μg/mL ([6]; 0.1 μg/mL): 54 ± 0.15%; viability at 24 h, 0.5 μg/mL ([6]; 0.5 μg/mL): 52 ± 0.15%; viability at 24 h, 5 μg/mL ([6]; 5 μg/mL): 43 ± 0.12%; viability at 24 h, 10 μg/mL ([6]; 10 μg/mL): 26 ± 0.03%; viability at 24 h, 20 μg/mL ([6]; 20 μg/mL): 15 ± 0.06%; viability at 24 h, 50 μg/mL ([6]; 50 μg/mL): 8 ± 0.09%; IC50 ([3]; Homo sapiens): 1400 nM; melting point: 107 to 108 °C; viability at 24 h, 0.1 μg/mL ([7]; 0.1 μg/mL): 23 ± 0.03%; viability at 24 h, 0.5 μg/mL ([7]; 0.5 μg/mL): 18 ± 0.03%; viability at 24 h, 5 μg/mL ([7]; 5 μg/mL): 13 ± 0.07%; viability at 24 h, 10 μg/mL ([7]; 10 μg/mL): 11 ± 0.06%; viability at 24 h, 20 μg/mL ([7]; 20 μg/mL): 4 ± 0.15%; viability at 24 h, 50 μg/mL ([7]; 50 μg/mL): 1 ± 0.12%"
"CC1CC(=O)OC(c2ccc(F)cc2)C1I (stereo not drawn) [9c, Trans,trans-6-(4-fluorophenyl)-tetrahydro-5-iodo-4-methylpyran-2-one]",9.76 × 10^7 CFU/mL,2.43 × 10^7 CFU/mL,1400 nM,51 ± 0.10%,43 ± 0.15%,35 ± 0.10%,23 ± 0.02%,18 ± 0.06%,15 ± 0.03%,rapid decomposition with release of iodine,15 ± 0.03%,12 ± 0.08%,9 ± 0.06%,6 ± 0.03%,3 ± 0.09%,1 ± 0.05%,70–78%,–
COc1cccc2c1C(=O)c1c(O)c3c(c(O)c1C2=O)C[C@@](O)(C(=O)CO)C[C@@H]3O[C@H]1C[C@H](N)[C@H](O)[C@H](C)O1 [doxorubicin],–,–,–,–,–,–,–,–,–,–,–,–,–,–,–,–,–,IC50 [8]: 25 nM

# From paper PMC6572184, “New γ-Halo-δ-lactones and δ-Hydroxy-γ-lactones with Strong Cytotoxic Activity” (Molecules, 2019)
